{
  "source": "paper PMC5577515",
  "about": "“Peptide‐Directed Binding for the Discovery of Modulators of α‐Helix‐Mediated Protein–Protein Interactions: Proof‐of‐Concept Studies with the Apoptosis Regulator Mcl‐1” (Angewandte Chemie (International Ed. in English), 2017)",
  "key": {"Mcl-1": {"molecular_target": "T1, Mcl-1 (UniProt P97287+Q07820)", "T1 construct": "amino acid residues 152-189 of mouse Mcl-1 fused with amino acid residues 209-327 of; 8 x His (N); TEV site (N); made in house; host or cells: E. coli BL21(DE3)pLysS", "T1 sequence (P97287 152-189 limits assumed)": "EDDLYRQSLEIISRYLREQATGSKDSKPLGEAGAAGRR", "T1 sequence (Q07820 209-327 limits assumed)": "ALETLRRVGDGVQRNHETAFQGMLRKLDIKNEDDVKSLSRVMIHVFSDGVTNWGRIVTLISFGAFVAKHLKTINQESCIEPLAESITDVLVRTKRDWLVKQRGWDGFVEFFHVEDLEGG", "assay": "Competitive fluorescence anisotropy (FA) assay, FITC-NoxaB displacement from Mcl-1", "type": "binding", "details": "Table 2; inhibition of binding of 5 nM FITC-NoxaB to 10 nM Mcl-1; PBS, 0.05% Tween-20, pH 7.4; non-linear regression of at least three experiments; errors = transformed greater extreme of standard error; SEM; read-out: FA IC50", "experimental": "Fmoc, 9-fluorenylmethylcarbony. IC50 determined by non -linear regression of at least three experiments.\n4. Fluorescence Anisotropy Binding Assay\nFluorescence anisotropy was carried out on a BMG Labtech clariostar microplate reader with a fluorescence anisotropy optic measuring at 482/530 nm. Low -binding, Corning 96 -well black plates were used and all reagents used in the assay were biological grade and purchased from Sigma Aldrich and Novabioche m. All solutions were made using MilliQ water .\nAnisotropy values were automatically calculated using the following formula […]\nWhere r = anisotropy, l a = parallel emission light, lb = perpendicular emission light and I = total […]\nKD was determined using GraphPad Prism Version 6.0 software, using the One Site – Total binding […]\nWhere Bmax is the maximum specific binding, KD is the equilibrium binding constant, and NS is the slope of nonspecific binding. […]\nIC50 was determined using GraphPad Prism Version 6.0 software, using a four-parameter logistic model, according to precedent from Ottmann and co-workers.[5] Errors are the transformed greater extreme of the standard error. […]\nFor binding each well contained 10 µL of Mcl -1 protein in 10-fold dilutions (0.37 pM to 3.7 µM) […]\nprotein were dissolved in PBS: 0.05% Tween -20 buffer at pH 7.4. Reagents were incubated for 30 min at room temperature prior to reading. Bubbles were removed and 8 data points were generated.\nFigure S 1: Fluorescence Anisotropy direct titration.\nTo confirm reproducibility of\n(µ) and standard deviations (σ) were inputted into the following equation:\nInhibition screens were carried out using 10 nM Mcl -1, 5 nM fluorescently-tagged peptide and 100 µM of inhibitor. Compounds were dissolved in DMSO. […]\ncontrol (DMSO) were used to define the mini mum and maximum values and ensure the assay was […]\n(1 picture or pasted object on this page, not shown here) […]\nBubbles were removed and 8 data points were generated. […]"}, "Bcl-2": {"molecular_target": "T2, Bcl-2 (Homo sapiens, UniProt P10415, DEL35-91/INS34DVEENRTEAPEGTESE)", "T2 construct": "The Bcl-2 protein used in our study has the same construction as that used in the work of Fesik; purchased Dundee Cell Product Ltd", "T2 sequence (P10415 with tags, fused parts or gaps INS34DVEEN/V35R/G36T/A37E/P40E/DEL42-87/P88T/V89E/P90S/P91E)": "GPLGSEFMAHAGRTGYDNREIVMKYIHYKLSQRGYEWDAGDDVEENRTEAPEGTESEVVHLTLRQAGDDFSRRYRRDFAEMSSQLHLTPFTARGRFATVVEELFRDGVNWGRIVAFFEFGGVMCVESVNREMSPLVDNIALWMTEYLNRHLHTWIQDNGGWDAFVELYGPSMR", "assay": "Competitive FA assay, FITC-Bid displacement from Bcl-2", "type": "binding", "details": "5 nM FITC-Bid, 30 nM Bcl-2; up to 100 µM compound", "experimental": "For binding each well contained 10 µL of Bcl -2 protein in 10-fold dilutions (0.90 pM to 9.0 µM) […]\n(§1) were dissolved in PBS: 0.05% Tween -20 buffer at pH 7.4. Reagents were incubated for 30 min at room temperature prior to reading. Bubbles were removed and 8 data points were generated.\nFigure S 3: Fluorescence Anisotropy direct titration. […] Normalized […]\n(§2) (1 picture or pasted object on this page, not shown here)"}, "Bcl-xL": {"molecular_target": "T3, Bcl-xL (Homo sapiens, UniProt Q07817, DEL45-84)", "T3 construct": "The Bcl-xL protein used in our study is a truncated construction of the full-length protein, with; purchased Dundee Cell Product Ltd", "T3 sequence (Q07817 with tags, fused parts or gaps DEL45-84)": "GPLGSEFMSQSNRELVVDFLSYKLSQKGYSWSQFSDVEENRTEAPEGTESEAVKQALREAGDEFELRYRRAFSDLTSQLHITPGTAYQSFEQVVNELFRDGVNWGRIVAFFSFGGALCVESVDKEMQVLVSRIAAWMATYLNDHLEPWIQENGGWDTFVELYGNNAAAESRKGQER", "assay": "Competitive FA assay, FITC-Bid displacement from Bcl-xL", "type": "binding", "details": "5 nM FITC-Bid, up to 100 µM compound", "experimental": "as §1, §2\nInhibition screens were carried out using […]"}, "MiaPaCa-2 cells": {"test_system": "MiaPaCa-2 cells", "assay": "MTS cytotoxicity assay, MiaPaCa-2", "type": "cell-based", "details": "72 h, 37 °C, triplicate, at least three experiments, errors = transformed greater extreme of standard error, SEM, read-out: MiaPaCa-2 cell growth inhibition IC50", "experimental": "(§3) CUSTOM_[…] (\"<1>=[N+]\",(\"charge\", 0, 2)) […]\n(§4) CUSTOM_[…] (\"<1>=[N]=[N]\",(\"bond\",1,(2,3))) […]\n(§5) CUSTOM_[…] (\"<1>([C]=[C])=[N][N]\",(\"bond\",1,(3,5))) […]\n(§6) The MiaPaCa-2 cell line, BxPC-3 cell line and AsPC-1 cell line were purchased from the European Collection of Cell Cultures (ECACC, Porton Down, UK). MiaPaCa-2 cells were cultured in DMEM media with 2 mM L-glutamine, 100 U/mL penicillin, 100 µg/mL streptomycin and 10% FCS.\n(§7) BxPC-3 cells and AsPC-1 cells were cultured in RPMI-1640 media containing 2 mM L-glutamine, 100 U/mL penicillin, 100 µg/mL streptomycin and 10% FCS. Cells were sub-cultured twice weekly and maintained at 37 °C and 5% CO2.\n(§8) The anti-proliferative activity of the compounds studied was assessed by MTS assay (Promega) following the manufacturer’s instructions. Cells were seeded at 5 x 103 / 100 μL in a 96-well plate and left untreated or treated with DMSO (vehicle control), or compounds 1-4 (100 μM – […], in well concentration) in triplicate for 72 h at 37 °C with 5% CO2. Following this, MTS assay reagent was added to each well and the plates incubated for 4 h at 37 °C with 5% CO2. The absorbance was measured at 492 nm using the BMG Labtech POLARstarOPTIMA microplate reader. […]"}, "BxPC-3 cells [1]": {"test_system": "BxPC-3 cells", "assay": "MTS cytotoxicity assay, BxPC-3", "type": "cell-based", "details": "72 h, 37 °C, triplicate, at least three experiments, errors = transformed greater extreme of standard error, SEM, read-out: BxPC-3 cell growth inhibition IC50", "experimental": "as §3, §4, §5, §6, §7, §8"}, "AsPC-1 cells": {"test_system": "AsPC-1 cells", "assay": "MTS cytotoxicity assay, AsPC-1", "type": "cell-based", "details": "for IC50: 72 h, 37 °C, triplicate, at least three experiments, errors = transformed greater extreme of standard error, read-out: AsPC-1 cell growth inhibition IC50; for activity against AsPC-1 cells: at the concentrations evaluated (up to 100 μM), result in words", "experimental": "as §3, §4, §5, §6, §7, §8"}, "BxPC-3 cells [2]": {"test_system": "BxPC-3 cells", "assay": "Annexin-V-FLUOS staining, phosphatidylserine externalization", "type": "cell-based", "details": "4 h, fluorescence microscopy", "experimental": "Figure 2 Representative small molecules induce hallmarks of apoptosis. A) Increase of caspase‐3 activation in BxPC‐3 cells 4 h after treatment. B) Externalization of phosphatidylserine, a hallmark of apoptosis, was evaluated by exposing BxPC‐3 cells to compounds 18 (25 μM), 20 (5 μM), 21 (5 μM), and 23 (25 μM) for 4 h followed by annexin‐V‐FLUOS. Images were taken at 10× magnification with a GFP filter (top) and white light (bottom). […]\nas §3, §4, §5, §6\nBxPC-3 cells and AsPC-1 cells were cultured in RPMI-1640 media containing 2 mM L-glutamine, 100 U/mL penicillin, 100 µg/mL streptomycin and 10% FCS. Cells were sub-cultured twice weekly and maintained at 37 °C and 5% CO2. […]\nAn Annexin-V-FLUOS/Propidium iodide staining kit (Roche Applied Science) was used to detect phosphatidylserine externalization in pancreatic cancer cell line BxPC-3. Cells, seeded in clear 96- […]\nand treated with staining kit according to the manufacturer’s protocol. Fluorescence microscopy […]\nwas used to examine cells and pictures taken with an inverted Leica DMII fluorescence microscope […]\nCaspase 3 activation assay […]"}},
  "note": "Read-outs that look alike come from different tables or passages of the source.",
  "data": [
    {"smiles": "COC(=O)C(Cc1cn(C23CC4CC(CC(C4)C2)C3)nn1)NC(=O)OCC1c2ccccc2-c2ccccc21", "note": "(centres unmarked) [Compound 18]", "values": [
      {"measurement": "IC50", "setting": "Mcl-1", "result": "186 ± 20", "unit": "nM"},
      {"measurement": "binding to Bcl-2 in FA assay", "setting": "Bcl-2", "result": "no appreciable binding"},
      {"measurement": "binding to Bcl-xL in FA assay", "setting": "Bcl-xL", "result": "no appreciable binding"},
      {"measurement": "IC50", "setting": "MiaPaCa-2 cells", "result": "15.2 ± 0.75", "unit": "µM"},
      {"measurement": "IC50", "setting": "BxPC-3 cells [1]", "result": "29.8 ± 4.15", "unit": "µM"},
      {"measurement": "IC50", "setting": "AsPC-1 cells", "result": "> 100", "unit": "µM"},
      {"measurement": "activity against AsPC-1 cells", "setting": "AsPC-1 cells", "result": "ineffective"},
      {"measurement": "externalization of phosphatidylserine (annexin-V-FLUOS binding)", "setting": "BxPC-3 cells [2]; 25 μM", "result": "induce the externalization of phosphatidylserine"}
    ]},
    {"smiles": "COC(=O)C(Cc1cn(Cc2ccc(C#N)cc2)nn1)NC(=O)OCC1c2ccccc2-c2ccccc21", "note": "(centres unmarked) [Compound 20]", "values": [
      {"measurement": "IC50", "setting": "Mcl-1", "result": "249 ± 51", "unit": "nM"},
      {"measurement": "IC50", "setting": "MiaPaCa-2 cells", "result": "6.57 ± 3.92", "unit": "µM"},
      {"measurement": "IC50", "setting": "BxPC-3 cells [1]", "result": "5.98 ± 1.14", "unit": "µM"},
      {"measurement": "IC50", "setting": "AsPC-1 cells; SEM", "result": "2.04 ± 0.62", "unit": "µM"},
      {"measurement": "externalization of phosphatidylserine (annexin-V-FLUOS binding)", "setting": "BxPC-3 cells [2]; 5 μM", "result": "induce the externalization of phosphatidylserine"}
    ]},
    {"smiles": "COC(=O)C(Cc1cn(Cc2ccc(Cl)cc2)nn1)NC(=O)OCC1c2ccccc2-c2ccccc21", "note": "(centres unmarked) [Compound 21]", "values": [
      {"measurement": "IC50", "setting": "Mcl-1", "result": "1260 ± 142", "unit": "nM"},
      {"measurement": "binding to Bcl-2 in FA assay", "setting": "Bcl-2", "result": "no appreciable binding"},
      {"measurement": "binding to Bcl-xL in FA assay", "setting": "Bcl-xL", "result": "no appreciable binding"},
      {"measurement": "IC50", "setting": "MiaPaCa-2 cells", "result": "1.85 ± 3.17", "unit": "µM"},
      {"measurement": "IC50", "setting": "BxPC-3 cells [1]", "result": "2.81 ± 0.4", "unit": "µM"},
      {"measurement": "IC50", "setting": "AsPC-1 cells", "result": "> 100", "unit": "µM"},
      {"measurement": "activity against AsPC-1 cells", "setting": "AsPC-1 cells", "result": "ineffective"},
      {"measurement": "externalization of phosphatidylserine (annexin-V-FLUOS binding)", "setting": "BxPC-3 cells [2]; 5 μM", "result": "induce the externalization of phosphatidylserine"}
    ]},
    {"smiles": "COC(=O)[C@H](Cc1cn(Cc2ccccc2F)nn1)NC(=O)OCC1c2ccccc2-c2ccccc21", "note": "[Compound 23, methyl (S)-2-((((9H-fluoren-9-yl)methoxy)carbonyl)amino)-3-(1-(2-fluorobenzyl)-1H-1,2,3-triazol-4-yl)propanoate]", "values": [
      {"measurement": "IC50", "setting": "Mcl-1", "result": "1700 ± 230", "unit": "nM"},
      {"measurement": "IC50", "setting": "MiaPaCa-2 cells", "result": "19.5 ± 1.35", "unit": "µM"},
      {"measurement": "IC50", "setting": "BxPC-3 cells [1]", "result": "25.2 ± 2.66", "unit": "µM"},
      {"measurement": "IC50", "setting": "AsPC-1 cells; SEM", "result": "10.5 ± 1.53", "unit": "µM"},
      {"measurement": "externalization of phosphatidylserine (annexin-V-FLUOS binding)", "setting": "BxPC-3 cells [2]; 25 μM", "result": "induce the externalization of phosphatidylserine"}
    ]}
  ]
}
